Laboratory results: US11028369B2, “Induced extended pluripotent stem cells, method of making and using” (Beihao Stem Cell and Regenerative Medicine Research …, priority 2015, dated 2021)
Where a name gives a salt, the structure may show the parent alone.

What was measured:
primed hES/hPS H9 cells = assay: Screen for dome-shaped hES colony formation / TGFβ signaling-independent self-renewal; assay type: cell-based, human; conditions: hLIF+2i + candidate with SB431542
From the text: Primed hES are flat colonies. By contrast, naïve human pluripotent cells are dome-shaped colonies. Therefore, any resultant human EPS cells can be morphologically distinguished from primed human pluripotent stem cells.
Positive candidates from the first screen above were further screened in order to identify small molecules that support TGFβ signaling-independent self-renewal of hES cells (Tesar, et al., Dev., 448:196-199 (2007); James, et al.,Dev., 132:1273-1282 (2005); Vallier, et al., J. Cell. Sci., 118:4495-4509 (2005)). A TGFβ inhibitor SB431542 was added to the chemical cocktail (2i+LIF+candidate) at the later stage of treatment (FIG. 1A).
Specifically, primed hES/hPS H9 cells were digested into single cells using ACCUTASE® (cell detachment solution), and seeded into a matrigel-coated 24-well plate (1×10^4 cells per well) on day 0 in conventional hES medium plus Y27632. On day 1, the conventional hES medium was replaced by the N2B27 medium supplemented with the hLIF+2i base, and candidates from the first round screen were added individually into each well. The medium was changed every two days and replaced with fresh N2B27 medium supplemented with hLIF+2i. 6 days later (i.e., on day 7), a TGF (transforming growth factor) β inhibitor, SB431542 (10 μm, Tocris), was added into wells with un-differentiated cells for another 6 days. […]

hEPS cells = assay: Maintenance of hEPS cells after withdrawal or replacement of DiM or MiH; assay type: cell-based, human; conditions: for maintenance of hEPS cells when DiM or MiH is replaced: inhibitor of the same target replaces DiM or MiH in LCDM; for maintenance of hEPS cells when DiM is replaced by MAPK signaling inhibitor: replacement of DiM
Protocol: FIGS. 4A and 4B show the profiles of H3K4me3 and H3K27me3 chromatin marks over all genes in primed hES (n=2, technical replicates) and hEPS (n=2, technical replicates) cells. The standard error of mean (SEM) across the regions is calculated and shown as a semi-transparent shade around the mean curve. FIGS. 4C-D are bar graphs showing Q-PCR analysis of selected gene expression in hEPS cells under different conditions at passage 7. DiM (((S)-(+)-Dimethindene maleate) (FIG. 4C) and MiH (Minocycline hydrochloride) (FIG. 4D) were replaced with small molecules targeting to the same targets in the LCDM [hLIF (human leukemia inhibitory factor), CHIR99021, DiM, and MiH] condition. hEPS cells were cultured under LCM condition with an added small molecule selected from: DiM (2 μM), TH(5 μM), DES(5 μM), or cultured with DMSO (dimethyl sulfoxide) respectively (FIG. 4C) or under LCD condition with an added small molecule selected from MiH, BSI-201 (5 μM), NAM (100 μM), PJ34 (N-(6-Oxo-5,6-dihydro-phenanthridin-2-yl)-N,N-dimethylacetamide. HCl) (5 μM), or DMSO (FIG. 4D). Expression values are normalized to the mean value of the LCM+DiM (FIG. 4C) and LCD+MiH (FIG. 4D) sample. LCM: human LIF+CHIR99021+MiH; LCD: human LIF+CHIR99021+DiM. Center values indicate mean. Error bars indicate s.d. (n=3, technical replicates). TH: Tripelennamine HCL; DES: Desloratadine; BSI: BSI-201; NAM: Nicotinamide. […] Expression values are normalized to the mean value of the scramble control. Center values indicate mean. Error bars indicate s.d. (n=3, technical replicates). FIG. 4F is a bar graph showing a summary of chimera assays at E12.5. […] FIG. 4G is a bar graph showing a summary of chimeric assays of single-cell injection at the 8-cell embryo stage. […] ICM & TE, embryos with the integration of mouse cells into both ICM and TE.
Human and mouse extended pluripotent stem cells were cultured in serum-free N2B27-LCDM medium in 20% O2, 5% CO2 conditions. To maintain human EPS cells in an undifferentiated state, the following criteria were used: a) avoidance of plating human EPS cells too sparsely; b) use of the proper quantity of freshly prepared MEF feeder cells; and c) not allowing human EPS cells to overgrow (for example, attain more than 90% confluence; preferably, the cells should be at less than 90% confluent). Accordingly, human and mouse EPS cells were cultured on mitomycin C-inactivated mouse embryonic fibroblast (MEF) feeder cells (3×10^4 cells per cm^2), and were passaged by single-cell trypsinization (0.05% trypsin-EDTA, Invitrogen) every 2-4 days (normally at a split ratio of 1:6 to 1:10). Passage numbers of EPS cells indicate number of passages counted after the acquirement of the extended pluripotent state. The N2B27-LCDM medium was changed every day with fresh LCDM medium.
Finally, the roles of DiM and MiH in maintaining EPS cells were investigated. […] Furthermore, similar results were obtained when MiH was replaced by the knockdown of PARP1 in hEPS cells (FIG. 4E). Importantly, both mEPS and hEPS cells still retained their ability of contributing to both TE and ICM in blastocysts under such conditions (FIG. 6C, 6D, and data not shown).

mEPS cells = assay: Chimeric analysis of mEPS cells cultured under different conditions (injection into 8-cell embryos); assay type: cell-based, mouse; conditions: chimeric blastocysts; for developmental potency of mEPS cells when DiM is replaced by MAPK signaling inhibitor: replacement of DiM
Protocol: FIGS. 6A and 6B show PCA of RNA-seq and microarray data from EPS cells and known pluripotent cell types. […] Data were normalized to mES cells in each study. […] Data were normalized to primed hPSCs in each study. […] Circles: RNA-seq data; triangles: microarray data. […] Parp1 knockout mEPS cells (Parp1-KO) were cultured in LCDM condition without MiH (-MiH). mEPS cells were cultured under different conditions for at least 5 passages before injection. Multiple cells were injected into 8-cell embryos, which were cultured for additional 60 hours before further analysis. […] ICM & TE, embryos with the integration of mouse cells into both ICM and TE. […] ICM & TE, embryos with the integration of mouse cells into both ICM and TE. TH: TripelennamineHCL; DES: Desloratadine; NAM: Nicotinamide. PD: PD0325901; SB: SB203580; SP: SP600125.
For injection of Tdtomato-labeled mEPS cells and conventional naïve mouse ES cells, mEPS and naïve mouse ES cells were trypsinized and microinjected in the same way as for hEPS cells except that Y27632 was not added into the suspension.
The cells used in this experiment were cultured and prepared in a way that was similar to that of the multiple-cell microinjections. The cell suspension was placed on ice for 20-30 minutes before injection. After being placed on ice, the digested single cells were used for injection within 1 hour: in other words, the whole injection process should not take more than 30 minutes. Afterward, the injected embryos are recovered for 1-2 hours in a humidified incubator with 5% CO2 at 37° C. If the cells were placed on ice for more than 1 hour, then another batch of cells was digested for the remaining injections. […] After 60 hours, the embryos were fixed and immunostained.

[1] = withdrawal of either DiM or MiH

C[C@@H](C1=C(CCN(C)C)Cc2ccccc21)c1ccccn1.O=C(O)/C=C\C(=O)O [DiM, (S)-(+)-Dimethindene maleate]
dome-shaped hES colony formation (primed hES/hPS H9 cells): support dome-shaped hES colony formation | effect of withdrawal from LCDM on hEPS cells (hEPS cells; [1]): rapid differentiation of hEPS cells within days after plating | effect of withdrawal from LCDM on developmental potency of mEPS cells (mEPS cells; [1]): significantly impaired the developmental potency of mEPS cells

NC(=O)c1ccc(I)c([N+](=O)[O-])c1 [BSI-201, 4-iodo-3-nitrobenzamide]
maintenance of hEPS cells when DiM or MiH is replaced (hEPS cells): could be replaced with other inhibitors targeting the same targets for the maintenance of hEPS cells

O=C(NOC[C@H](O)CO)c1ccc(F)c(F)c1Nc1ccc(I)cc1F [PD0325901]
maintenance of hEPS cells when DiM is replaced by MAPK signaling inhibitor (hEPS cells): could not maintain hEPS cells | developmental potency of mEPS cells when DiM is replaced by MAPK signaling inhibitor (mEPS cells): could not preserve the developmental potency of mEPS cells

CN(C)CCN(Cc1ccccc1)c1ccccn1 [TripelennamineHCL, Tripelennamine HCL]
maintenance of hEPS cells when DiM or MiH is replaced (hEPS cells): could be replaced with other inhibitors targeting the same targets for the maintenance of hEPS cells

NC(=O)c1cccnc1 [Nicotinamide]
maintenance of hEPS cells when DiM or MiH is replaced (hEPS cells): could be replaced with other inhibitors targeting the same targets for the maintenance of hEPS cells

C[S+]([O-])c1ccc(-c2nc(-c3ccncc3)c(-c3ccc(F)cc3)[nH]2)cc1 (centres unmarked) [SB203580]
maintenance of hEPS cells when DiM is replaced by MAPK signaling inhibitor (hEPS cells): could not maintain hEPS cells | developmental potency of mEPS cells when DiM is replaced by MAPK signaling inhibitor (mEPS cells): could not preserve the developmental potency of mEPS cells

Clc1ccc2c(c1)CCc1cccnc1C2=C1CCNCC1 [Desloratadine]
maintenance of hEPS cells when DiM or MiH is replaced (hEPS cells): could be replaced with other inhibitors targeting the same targets for the maintenance of hEPS cells
